Our source for the IC50 values is patent US20120029190A1, “COMPOUNDS FOR TREATING DISORDERS MEDIATED BY METABOTROPIC GLUTAMATE RECEPTOR 5, AND METHODS OF USE THEREOF” (priority 2009, published 2012).

One test deals with T1, human recombinant mGluR5 receptor (Homo sapiens, UniProt P41594).
T1 construct: expressed in transfected cells; expression induced with doxycycline
T1 sequence (P41594 21-1212): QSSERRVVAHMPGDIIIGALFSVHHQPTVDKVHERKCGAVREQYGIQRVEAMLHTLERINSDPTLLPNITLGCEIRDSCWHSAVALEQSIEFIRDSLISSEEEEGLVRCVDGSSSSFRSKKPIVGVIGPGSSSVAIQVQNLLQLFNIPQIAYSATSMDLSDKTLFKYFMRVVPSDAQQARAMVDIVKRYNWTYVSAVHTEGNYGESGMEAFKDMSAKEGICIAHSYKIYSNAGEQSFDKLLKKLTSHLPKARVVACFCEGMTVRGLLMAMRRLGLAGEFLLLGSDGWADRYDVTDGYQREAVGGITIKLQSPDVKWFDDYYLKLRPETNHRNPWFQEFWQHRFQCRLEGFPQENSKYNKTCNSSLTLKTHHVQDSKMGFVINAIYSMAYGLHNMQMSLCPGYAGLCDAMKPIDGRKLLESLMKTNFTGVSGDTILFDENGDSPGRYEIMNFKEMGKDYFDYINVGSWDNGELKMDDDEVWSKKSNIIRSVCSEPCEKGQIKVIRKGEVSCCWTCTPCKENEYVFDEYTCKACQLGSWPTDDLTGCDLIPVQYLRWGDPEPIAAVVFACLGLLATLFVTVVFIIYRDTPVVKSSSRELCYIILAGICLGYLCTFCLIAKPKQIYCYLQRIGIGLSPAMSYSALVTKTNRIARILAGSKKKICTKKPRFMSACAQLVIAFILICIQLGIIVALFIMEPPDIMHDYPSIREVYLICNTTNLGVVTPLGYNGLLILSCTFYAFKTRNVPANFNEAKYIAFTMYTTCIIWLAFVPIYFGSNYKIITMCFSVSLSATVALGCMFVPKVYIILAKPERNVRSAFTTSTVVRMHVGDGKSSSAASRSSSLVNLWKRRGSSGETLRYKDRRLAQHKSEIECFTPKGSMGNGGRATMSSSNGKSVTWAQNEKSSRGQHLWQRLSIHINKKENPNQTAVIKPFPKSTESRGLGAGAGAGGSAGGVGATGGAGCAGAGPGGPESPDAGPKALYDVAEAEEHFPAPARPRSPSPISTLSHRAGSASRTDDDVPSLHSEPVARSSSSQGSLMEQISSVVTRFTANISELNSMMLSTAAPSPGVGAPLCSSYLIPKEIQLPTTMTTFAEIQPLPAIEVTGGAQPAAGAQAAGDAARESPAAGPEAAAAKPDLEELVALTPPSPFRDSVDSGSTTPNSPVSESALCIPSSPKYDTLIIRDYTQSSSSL
Put plainly: mGluR5 in vitro functional assay (aequorin cell line, inhibition of glutamate EC80 response). Conditions: Table 1; aequorin cell line expressing human mGluR5, reference agonist glutamate at EC80; obtained in duplicate; read-out: IC50. It counts as cell-based. As for the experimental part: B. mGluR5 In Vitro Functional Assay
The functional assay utilized an aequorin cell line expressing human recombinant mGluR5 receptor, an inducible cell line that expresses the human receptor under the control of a promoter induced by doxycycline.
mGluR5 cells in mid-log phase, grown 18 hours prior to the test in antibiotic-free media supplemented with doxycycline (600 ng/mL), were detached by gentle flushing with PBS-EDTA ([…]). The cells were recovered by centrifugation and resuspended in assay buffer (HBSS, […], 3 ug/mL glutamate-pyruvate transaminase, […] MEM sodium pyruvate, 0.1% BSA protease-free). Cells were incubated at room temperature for at least 4 hours with Coelenterazine h (Molecular Probes). The cell suspension (60 uL) containing the test compound was mixed with a solution of reference agonist (30 uL) at its EC80, following an incubation of 3 min. after the first injection. The resulting emission of light was recorded using a Hamamatsu Functional Drug Screening System 6000 (FDSS 6000). To standardize the emission of recorded light (determination of the “100% signal’) across plates and across different experiments, some of the wells contained 100 uM digitonin or a saturating concentration (20 mM) of ATP. Plates also contained the reference agonist (glutamate) at a concentration equivalent to the EC80 obtained during assay validation. Percentages of inhibition were calculated on the basis of the activation induced by the reference agonist at a concentration equal to the EC80. Dose-response data were analyzed with XLFit (IDBS) software using nonlinear regression applied to a sigmoidal dose-response model.
With `CC1CN(c2cc(F)cc(C#N)c2)Cc2oc(-c3ccccn3)nc21` (racemic) [Compound 81, (+/−)-3-Fluoro-5-(7-methyl-2-(pyridin-2-yl)-6,7-dihydrooxazolo[5,4-c]pyridin-5(4H)-yl)benzonitrile], the IC50 – broadly, the concentration that gives 50% inhibition – was below 1 µM.

As for `CC1CN(c2cc(F)cc(C#N)c2)Cc2nc(-c3ccccn3)oc21` (racemic) [Compound 82, (+/−)-3-Fluoro-5-(7-methyl-2-(pyridin-2-yl)-6,7-dihydrooxazolo[4,5-c]pyridin-5(4H)-yl)benzonitrile], the IC50 was below 1 µM.

In the case of `N#Cc1cccc(N2CCc3nc(-c4ccccn4)oc3C2)c1` [Compound 1, 3-(2-(Pyridin-2-yl)-6,7-dihydrooxazolo[5,4-c]pyridin-5(4H)-yl)benzonitrile], the IC50 is below 1 µM.

In the case of `c1ccc(-c2nc3c(o2)CN(c2ccccn2)CC3)nc1` [Compound 2, 2,5-Di(pyridin-2-yl)-4,5,6,7-tetrahydro-oxazolo[5,4-c]pyridine], the IC50 is below 10 µM.

Take `N#Cc1cccnc1N1CCc2nc(-c3ccccn3)oc2C1` [Compound 3, 2-(2-(Pyridin-2-yl)-6,7-dihydrooxazolo[5,4-c]pyridin-5(4H)-yl)nicotinonitrile]: the IC50 was below 1 µM.

As to `N#Cc1cc(F)cc(N2CCc3nc(-c4ccccn4)oc3C2)c1` [Compound 4, 3-Fluoro-5-(2-(pyridin-2-yl)-6,7-dihydrooxazolo[5,4-c]pyridin-5(4H)-yl)benzonitrile], the IC50 was below 1 µM.

As for `c1ccc(-c2nc3c(o2)CN(c2cccnc2)CC3)nc1` [Compound 5, 2-(Pyridin-2-yl)-5-(pyridin-3-yl)-4,5,6,7-tetrahydrooxazolo[5,4-c]pyridine], the IC50 was above 10 µM.

Regarding `N#Cc1cccc(N2CCc3nc(-c4ccccn4)oc3C2)n1` [Compound 6, 6-(2-(Pyridin-2-yl)-6,7-dihydrooxazolo[5,4-c]pyridin-5(4H)-yl)picolinonitrile], the IC50 was below 10 µM.

For `N#Cc1ccnc(N2CCc3nc(-c4ccccn4)oc3C2)c1` [Compound 7, 2-(2-(Pyridin-2-yl)-6,7-dihydrooxazolo[5,4-c]pyridin-5(4H)-yl)isonicotinonitrile], the IC50 was below 10 µM.

Regarding `N#Cc1cncc(N2CCc3nc(-c4ccccn4)oc3C2)c1` [Compound 8, 5-(2-(Pyridin-2-yl)-6,7-dihydrooxazolo[5,4-c]pyridin-5(4H)-yl)nicotinonitrile], the IC50 is below 10 µM.

For the molecule `N#Cc1cc(N2CCc3nc(-c4ccccn4)oc3C2)ccn1` [Compound 9, 4-(2-(Pyridin-2-yl)-6,7-dihydrooxazolo[5,4-c]pyridin-5(4H)-yl)picolinonitrile], the IC50 was below 10 µM.

`N#Cc1cc(Br)cc(N2CCc3nc(-c4ccccn4)oc3C2)c1` [Compound 10, 3-Bromo-5-(2-(pyridin-2-yl)-6,7-dihydrooxazolo[5,4-c]pyridin-5(4H)-yl)benzonitrile]: the IC50 was below 1 µM.

On to `N#Cc1cc(N2CCOCC2)cc(N2CCc3nc(-c4ccccn4)oc3C2)c1` [Compound 11, 3-Morpholino-5-(2-(pyridin-2-yl)-6,7-dihydrooxazolo[5,4-c]pyridin-5(4H)-yl)benzonitrile], for which the IC50 was above 10 µM.

In the case of `N#Cc1cccc(C(=O)N2CCc3nc(-c4ccccn4)oc3C2)c1` [Compound 12, 3-(2-(Pyridin-2-yl)-4,5,6,7-tetrahydrooxazolo[5,4-c]pyridine-5-carbonyl)benzonitrile], the IC50 was below 10 µM.

Take `N#Cc1cccc(CN2CCc3nc(-c4ccccn4)oc3C2)c1` [Compound 13]: the IC50 is below 10 µM.

For the molecule `Fc1cc(-c2ccncc2)cc(N2CCc3nc(-c4ccccn4)oc3C2)c1` [Compound 14, 5-(3-Fluoro-5-(pyridin-4-yl)phenyl)-2-(pyridin-2-yl)-4,5,6,7-tetrahydrooxazolo[5,4-c]pyridine], the IC50 was below 10 µM.

For `N#Cc1cccc(N2CCc3nc(-c4cccc[n+]4[O-])oc3C2)c1` [Compound 15, 2-(5-(3-Cyanophenyl)-4,5,6,7-tetrahydrooxazolo[5,4-c]pyridin-2-yl)pyridine 1-oxide], the IC50 is below 1 µM.

Turning to `N#Cc1cc(C#N)cc(N2CCc3nc(-c4ccccn4)oc3C2)c1` [Compound 16, 5-(2-(Pyridin-2-yl)-6,7-dihydrooxazolo[5,4-c]pyridin-5(4H)-yl)isophthalonitrile], the IC50 is below 10 µM.

`Fc1cc(F)cc(N2CCc3nc(-c4ccccn4)oc3C2)c1` [Compound 17, 5-(3,5-Difluorophenyl)-2-(pyridin-2-yl)-4,5,6,7-tetrahydrooxazolo[5,4-c]pyridine]: the IC50 was below 1 µM.

With `c1ccc(-c2nc3c(o2)CN(c2cnccn2)CC3)cc1` [Compound 18, 2-Phenyl-5-(pyrazin-2-yl)-4,5,6,7-tetrahydrooxazolo-[5,4-c]pyridine], the concentration for half-maximal inhibition (IC50) was below 10 µM.

As for `N#Cc1cccnc1N1CCc2nc(-c3ccccc3)oc2C1` [Compound 19, 2-(2-Phenyl-6,7-dihydrooxazolo[5,4-c]pyridin-5(4H)-yl)nicotinonitrile], the IC50 was below 10 µM.

With `c1ccc(-c2nc3c(o2)CN(c2ccccn2)CC3)cc1` [Compound 20, 2-Phenyl-5-(pyridin-2-yl)-4,5,6,7-tetrahydrooxazolo-[5,4-c]pyridine], the IC50 was above 10 µM.

Take `N#Cc1cc(F)cc(N2CCc3nc(-c4ccccc4)oc3C2)c1` [Compound 21, 3-Fluoro-5-(2-phenyl-6,7-dihydrooxazolo[5,4-c]pyridin-5(4H)-yl)benzonitrile]: the IC50 is below 1 µM.

`c1ccc(-c2nc3c(o2)CN(c2nccs2)CC3)nc1` [Compound 22, 2-(Pyridin-2-yl)-5-(thiazol-2-yl)-4,5,6,7-tetrahydrooxazolo[5,4-c]pyridine]: the IC50 was below 10 µM.

For `N#Cc1cccc(N2CCc3oc(-c4ccccn4)nc3C2)c1` [Compound 23, 3-(2-(Pyridin-2-yl)-6,7-dihydrooxazolo[4,5-c]pyridin-5(4H)-yl)benzonitrile], the IC50 is below 1 µM.

On to `N#Cc1ccnc(N2CCc3oc(-c4ccccn4)nc3C2)c1` [Compound 24, 2-(2-(Pyridin-2-yl)-6,7-dihydrooxazolo[4,5-c]pyridin-5(4H)-yl)isonicotinonitrile], for which the IC50 was below 1 µM.

For `N#Cc1cncc(N2CCc3oc(-c4ccccn4)nc3C2)c1` [Compound 25, 5-(2-(Pyridin-2-yl)-6,7-dihydrooxazolo[4,5-c]pyridin-5(4H)-yl)nicotinonitrile], the IC50 was below 1 µM.

In the case of `N#Cc1cc(N2CCc3oc(-c4ccccn4)nc3C2)ccn1` [Compound 26, 4-(2-(Pyridin-2-yl)-6,7-dihydrooxazolo[4,5-c]pyridin-5(4H)-yl)picolinonitrile], the IC50 was below 1 µM.

For `c1ccc(-c2nc3c(o2)CCN(c2ccccn2)C3)nc1` [Compound 27, 2,5-Di(pyridin-2-yl)-4,5,6,7-tetrahydrooxazolo[4,5-c]pyridine], the IC50 was below 1 µM.

As for `N#Cc1cccnc1N1CCc2oc(-c3ccccn3)nc2C1` [Compound 28, 2-(2-(Pyridin-2-yl)-6,7-dihydrooxazolo[4,5-c]pyridin-5(4H)-yl)nicotinonitrile], the IC50 is below 1 µM.

For the molecule `N#Cc1cccc(N2CCc3oc(-c4ccccn4)nc3C2)n1` [Compound 29, 6-(2-(Pyridin-2-yl)-6,7-dihydrooxazolo[4,5-c]pyridin-5(4H)-yl)picolinonitrile], the IC50 was below 1 µM.

With `N#Cc1cc(F)cc(N2CCc3oc(-c4ccccn4)nc3C2)c1` [Compound 30, 3-Fluoro-5-(2-(pyridin-2-yl)-6,7-dihydrooxazolo[4,5-c]pyridin-5(4H)-yl)benzonitrile], the IC50 is below 1 µM.

With `Fc1cc(F)cc(N2CCc3oc(-c4ccccn4)nc3C2)c1` [Compound 31, 5-(3,5-Difluorophenyl)-2-(pyridin-2-yl)-4,5,6,7-tetrahydrooxazolo[4,5-c]pyridine], the IC50 was below 1 µM.

Staying with this test, now noted: Table 2; aequorin cell line expressing human mGluR5, reference agonist glutamate at EC80; obtained in duplicate; read-out: IC50.
For `Clc1ccccc1C1CCc2oc(-c3ccccn3)nc2C1` (racemic) [Compound 219, 5-(2-Chlorophenyl)-2-(pyridin-2-yl)-4,5,6,7-tetrahydrobenzo[d]oxazole], the IC50 was below 1 µM.

With `Fc1ccc(C2CCc3oc(-c4ccccn4)nc3C2)c(Cl)c1` (racemic) [Compound 223, 5-(2-Chloro-4-fluorophenyl)-2-(pyridin-2-yl)-4,5,6,7-tetrahydrobenzo[d]oxazole], the 50% inhibitory concentration (IC50) was below 1 µM.

For `Clc1ccccc1[C@@H]1CCc2oc(-c3ccccn3)nc2C1` (single isomer, unassigned) [Compound 220], the IC50 was below 1 µM.

On to `Clc1ccccc1[C@H]1CCc2oc(-c3ccccn3)nc2C1` (single isomer, unassigned) [Compound 221], for which the IC50 was below 1 µM.

As for `Fc1ccc([C@@H]2CCc3oc(-c4ccccn4)nc3C2)c(Cl)c1` (single isomer, unassigned) [Compound 224], the IC50 was below 1 µM.

In the case of `Fc1ccc([C@H]2CCc3oc(-c4ccccn4)nc3C2)c(Cl)c1` (single isomer, unassigned) [Compound 225], the IC50 was below 1 µM.
